US7803930B2, “Antisense modulation of apolipoprotein B-expression” (Isis Pharmaceuticals, Inc., priority 2002, dated 2010)
In the oligonucleotide strings, read from the 5' end, every base follows the letter of its sugar. An asterisk marks phosphorothioate; unmarked linkages are phosphodiester. Other units and linkages are bracketed, terminal groups are in braces. A string of capitals states the bases alone. e = 2'-O-(2-methoxyethyl) (MOE); [5mC] = 5-methylcytosine; d = 2'-deoxy (DNA)

Test system: human apolipoprotein B mRNA
Test: Inhibition of human apolipoprotein B mRNA levels in HepG2 cells, quantitative real-time PCR
Format: cell-based
Conditions: HepG2 cells; for % inhibition of apolipoprotein B mRNA levels: normalized to untreated control, average of two experiments
In short: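 Apolipoprotein B transcript was quantified by one-step TaqMan RT-PCR, normalized to GAPDH or RiboGreen RNA, and expressed as percent inhibition against an untreated-sample standard curve. HepG2 cells were harvested 16-24 h after oligonucleotide exposure, which was delivered with 3.75 μg/mL Lipofectin over 4-7 h at 80% confluency.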

[1] = Table 11 gene walk, 50 nM, averages from two experiments
[2] = Table 11 gene walk, 150 nM, averages from two experiments
[3] = Table 13 gene walk, 50 nM, averages from two experiments
[4] = Table 13 gene walk, 150 nM, averages from two experiments
[5] = Table 17 variable gap, 50 nM, averages from three experiments
[6] = Table 17 variable gap, 150 nM, averages from three experiments
[7] = 50 nm oligonucleotide, variable deoxy gap position
[8] = 150 nm oligonucleotide, variable deoxy gap position

308610 (eA*e[5mC]*e[5mC]*eA*eG*d[5mC]*d[5mC]*dA*d[5mC]*dA*dT*dG*d[5mC]*dA*dG*e[5mC]*eT*eT*e[5mC]*eA; antisense) [compound 308610]
% INHIB 50 nm [1]: 40% | % INHIB 150 nm [2]: 90%

308611 (eT*eT*eA*e[5mC]*e[5mC]*dA*dG*d[5mC]*d[5mC]*dA*d[5mC]*dA*dT*dG*d[5mC]*eA*eG*e[5mC]*eT*eT; antisense) [compound 308611]
% INHIB 50 nm [1]: 59% | % INHIB 150 nm [2]: 95%

308612 (eG*eG*eT*eT*eA*d[5mC]*d[5mC]*dA*dG*d[5mC]*d[5mC]*dA*d[5mC]*dA*dT*eG*e[5mC]*eA*eG*e[5mC]; antisense) [compound 308612]
% INHIB 50 nm [1]: 75% | % INHIB 150 nm [2]: 90%

308613 (eT*eA*eG*eG*eT*dT*dA*d[5mC]*d[5mC]*dA*dG*d[5mC]*d[5mC]*dA*d[5mC]*eA*eT*eG*e[5mC]*eA; antisense) [compound 308613]
% INHIB 50 nm [1]: 43% | % INHIB 150 nm [2]: 87%

308614 (eT*eT*eT*eA*eG*dG*dT*dT*dA*d[5mC]*d[5mC]*dA*dG*d[5mC]*d[5mC]*eA*e[5mC]*eA*eT*eG; antisense) [compound 308614]
% INHIB 50 nm [1]: 74% | % INHIB 150 nm [2]: 92%

308615 (e[5mC]*eT*eT*eT*eT*dA*dG*dG*dT*dT*dA*d[5mC]*d[5mC]*dA*dG*e[5mC]*e[5mC]*eA*e[5mC]*eA; antisense) [compound 308615]
% INHIB 50 nm [1]: 45% | % INHIB 150 nm [2]: 85%

308616 (eT*e[5mC]*e[5mC]*eT*eT*dT*dT*dA*dG*dG*dT*dT*dA*d[5mC]*d[5mC]*eA*eG*e[5mC]*e[5mC]*eA; antisense) [compound 308616]
% INHIB 50 nm [1]: 39% | % INHIB 150 nm [2]: 81%

308617 (eG*e[5mC]*eT*e[5mC]*e[5mC]*dT*dT*dT*dT*dA*dG*dG*dT*dT*dA*e[5mC]*e[5mC]*eA*eG*e[5mC]; antisense) [compound 308617]
% INHIB 50 nm [1]: 77% | % INHIB 150 nm [2]: 87%

308618 (eA*eG*eG*e[5mC]*eT*d[5mC]*d[5mC]*dT*dT*dT*dT*dA*dG*dG*dT*eT*eA*e[5mC]*e[5mC]*eA; antisense) [compound 308618]
% INHIB 50 nm [1]: 61% | % INHIB 150 nm [2]: 77%

308619 (eG*eT*eA*eG*eG*d[5mC]*dT*d[5mC]*d[5mC]*dT*dT*dT*dT*dA*dG*eG*eT*eT*eA*e[5mC]; antisense) [compound 308619]
% INHIB 50 nm [1]: 69% | % INHIB 150 nm [2]: 74%

308620 (eT*eG*eG*eT*eA*dG*dG*d[5mC]*dT*d[5mC]*d[5mC]*dT*dT*dT*dT*eA*eG*eG*eT*eT; antisense) [compound 308620]
% INHIB 50 nm [1]: 69% | % INHIB 150 nm [2]: 88%

308621 (eT*eT*eT*eG*eG*dT*dA*dG*dG*d[5mC]*dT*d[5mC]*d[5mC]*dT*dT*eT*eT*eA*eG*eG; antisense) [compound 308621]
% INHIB 50 nm [1]: 56% | % INHIB 150 nm [2]: 91%

308622 (eG*e[5mC]*e[5mC]*eT*eT*d[5mC]*dT*dG*d[5mC]*dT*dT*dG*dA*dG*dT*eT*eA*e[5mC]*eA*eA; antisense) [compound 308622]
% INHIB 50 nm [3]: 25% | % INHIB 150 nm [4]: 87%

308623 (eG*e[5mC]*eG*e[5mC]*e[5mC]*dT*dT*d[5mC]*dT*dG*d[5mC]*dT*dT*dG*dA*eG*eT*eT*eA*e[5mC]; antisense) [compound 308623]
% INHIB 50 nm [3]: 62% | % INHIB 150 nm [4]: 71%

308624 (eT*e[5mC]*eG*e[5mC]*eG*d[5mC]*d[5mC]*dT*dT*d[5mC]*dT*dG*d[5mC]*dT*dT*eG*eA*eG*eT*eT; antisense) [compound 308624]
% INHIB 50 nm [3]: 69% | % INHIB 150 nm [4]: 89%

308625 (e[5mC]*eT*eT*e[5mC]*eG*d[5mC]*dG*d[5mC]*d[5mC]*dT*dT*d[5mC]*dT*dG*d[5mC]*eT*eT*eG*eA*eG; antisense) [compound 308625]
% INHIB 50 nm [3]: 64% | % INHIB 150 nm [4]: 83%

308626 (eA*eG*eT*e[5mC]*eT*dG*d[5mC]*dT*dT*d[5mC]*dG*d[5mC]*dG*d[5mC]*d[5mC]*eT*eT*e[5mC]*eT*eG; antisense) [compound 308626]
% INHIB 50 nm [3]: 38% | % INHIB 150 nm [4]: 94%

308627 (eT*e[5mC]*eA*eG*eT*d[5mC]*dT*dG*d[5mC]*dT*dT*d[5mC]*dG*d[5mC]*dG*e[5mC]*e[5mC]*eT*eT*e[5mC]; antisense) [compound 308627]
% INHIB 50 nm [3]: 67% | % INHIB 150 nm [4]: 89%

308628 (e[5mC]*e[5mC]*eT*e[5mC]*eA*dG*dT*d[5mC]*dT*dG*d[5mC]*dT*dT*d[5mC]*dG*e[5mC]*eG*e[5mC]*e[5mC]*eT; antisense) [compound 308628]
% INHIB 50 nm [3]: 61% | % INHIB 150 nm [4]: 92%

308629 (eA*eG*e[5mC]*e[5mC]*eT*d[5mC]*dA*dG*dT*d[5mC]*dT*dG*d[5mC]*dT*dT*e[5mC]*eG*e[5mC]*eG*e[5mC]; antisense) [compound 308629]
% INHIB 50 nm [3]: 77% | % INHIB 150 nm [4]: 95%

308630 (GCCTCAGTCTGCTTCGCGCC; 0-10-10 MOE gapmer, phosphorothioate, chemistry not fully specified) [compound 308630]
% INHIB 50 nm [5]: 69% | % INHIB 150 nm [6]: 89%

308631 (AGGTTACCAGCCACATGCAG; 0-10-10 MOE gapmer, phosphorothioate, chemistry not fully specified) [compound 308631]
% INHIB 50 nm [7]: 74% | % INHIB 150 nm [8]: 94%

308632 (GCCTCAGTCTGCTTCGCACC; 0-10-10 MOE gapmer, phosphorothioate, chemistry not fully specified) [compound 308632]
% INHIB 50 nm [7]: 41% | % INHIB 150 nm [8]: 97%

308633 (GCCTCAGTCTGCTTCGCGCC; 10-10-0 MOE gapmer, phosphorothioate, chemistry not fully specified) [compound 308633]
% INHIB 50 nm [5]: 66% | % INHIB 150 nm [6]: 83%

308634 (AGGTTACCAGCCACATGCAG; 10-10-0 MOE gapmer, phosphorothioate, chemistry not fully specified) [compound 308634]
% INHIB 50 nm [7]: 45% | % INHIB 150 nm [8]: 67%

308635 (GCCTCAGTCTGCTTCGCACC; 10-10-0 MOE gapmer, phosphorothioate, chemistry not fully specified) [compound 308635]
% INHIB 50 nm [7]: 69% | % INHIB 150 nm [8]: 93%

308636 (GCCTCAGTCTGCTTCGCGCC; all C 5-methyl, all phosphorothioate, sugars by position not given here; further chemistry not fully specified) [compound 308636]
% INHIB 50 nm [5]: 81% | % INHIB 150 nm [6]: 91%

308637 (AGGTTACCAGCCACATGCAG; 1-10-9 MOE gapmer, phosphorothioate, chemistry not fully specified) [compound 308637]
% INHIB 50 nm [7]: 79% | % INHIB 150 nm [8]: 95%

308638 (GCCTCAGTCTGCTTCGCACC; 1-10-9 MOE gapmer, phosphorothioate, chemistry not fully specified) [compound 308638]
% inhibition of apolipoprotein B mRNA levels (12.5 nM oligonucleotide): 42% | % inhibition of apolipoprotein B mRNA levels (37 nM oligonucleotide): 73% | % inhibition of apolipoprotein B mRNA levels (75 nM oligonucleotide): 91% | % inhibition of apolipoprotein B mRNA levels (150 nM oligonucleotide): 96% | % inhibition of apolipoprotein B mRNA levels (300 nM oligonucleotide): 97% | % INHIB 50 nm [7]: 91% | % INHIB 150 nm [8]: 94%

308639 (GCCTCAGTCTGCTTCGCGCC; all C 5-methyl, all phosphorothioate, sugars by position not given here; further chemistry not fully specified) [compound 308639]
% INHIB 50 nm [5]: 86% | % INHIB 150 nm [6]: 94%

308640 (AGGTTACCAGCCACATGCAG; 2-10-8 MOE gapmer, phosphorothioate, chemistry not fully specified) [compound 308640]
% INHIB 50 nm [7]: 76% | % INHIB 150 nm [8]: 96%

308641 (GCCTCAGTCTGCTTCGCACC; 2-10-8 MOE gapmer, phosphorothioate, chemistry not fully specified) [compound 308641]
% INHIB 50 nm [7]: 77% | % INHIB 150 nm [8]: 89%

308642 (GCCTCAGTCTGCTTCGCGCC; 3-10-7 MOE gapmer, phosphorothioate, chemistry not fully specified) [compound 308642]
% inhibition of apolipoprotein B mRNA levels (12.5 nM oligonucleotide): 59% | % inhibition of apolipoprotein B mRNA levels (37 nM oligonucleotide): 84% | % inhibition of apolipoprotein B mRNA levels (75 nM oligonucleotide): 91% | % inhibition of apolipoprotein B mRNA levels (150 nM oligonucleotide): 97% | % inhibition of apolipoprotein B mRNA levels (300 nM oligonucleotide): 98% | % INHIB 50 nm [5]: 85% | % INHIB 150 nm [6]: 95%

308643 (antisense AGGTTACCAGCCACATGCAG; 3-10-7 2'-MOE gapmer, phosphorothioate, chemistry not fully specified) [compound 308643]
% INHIB 50 nm [7]: 56% | % INHIB 150 nm [8]: 96%

308644 (antisense GCCTCAGTCTGCTTCGCACC; 3-10-7 2'-MOE gapmer, phosphorothioate, chemistry not fully specified) [compound 308644]
% INHIB 50 nm [7]: 71% | % INHIB 150 nm [8]: 93%

308645 (antisense GCCTCAGTCTGCTTCGCGCC; 4-10-6 2'-MOE gapmer, phosphorothioate, chemistry not fully specified) [compound 308645]
% INHIB 50 nm [5]: 57% | % INHIB 150 nm [6]: 98%
